As a reminder, the solubility (kinetic) is solubility judged after dilution from a stock solution rather than from solid.

Values after ≈ are worked out from the molar mass of the structure shown.

These results are taken from PubChem BioAssay AID1996.

The conditions of the data set: buffer; pH 7.4; 200.0 µM.
`CCOc1ccccc1CNC(=O)CNC(=O)c1cccs1`: the kinetic solubility was more than 47.8 µg/mL.

As to `O=C(NC1CCCCCC1)C1CCN(S(=O)(=O)c2cnc[nH]2)CC1`, the solubility (kinetic) was 50.7 µg/mL (≈ 143 µM). The compound `COc1ccc(NC(=O)N2CCCC2C(=O)NC2CCCC2)cc1` (configuration not stated) showed a solubility (kinetic) of more than 49.7 µg/mL. To `Cc1ccc(C)c(Nc2c([N+](=O)[O-])ccc3nonc23)c1` belongs 0.2 µg/mL (≈ 0.704 µM); to `COc1ccc(CN(C)C(=O)CNC(=O)c2ccc(C)cc2)cc1`, more than 49 µg/mL; to `O=C(c1ccccc1)C(Nc1ccccn1)c1ccccc1` (configuration not stated), 27.8 µg/mL (≈ 96.4 µM). The compound `Cc1ccc(C(=O)NCCNC(=O)c2ccc(C)o2)o1` yielded a kinetic solubility of 36.1 µg/mL (≈ 131 µM). The result for `Cc1ccc(C(=O)NC2CCC(C)CC2)s1` (configuration not stated) reads 10.2 µg/mL (≈ 43 µM); that for `O=C(COC(=O)Cc1ccc(Cl)cc1)NC1CCCC1`, more than 44.4 µg/mL; that for `CC(=O)c1ccc(NC(=O)CN2c3cccc4cccc(c34)S2(=O)=O)cc1`, 7.2 µg/mL (≈ 18.9 µM). Compound `O=C(Nc1nnc(CCN2CCCCC2)s1)c1ccccc1Cl` showed a kinetic solubility of more than 52.6 µg/mL.

As to `COc1ccccc1CNC(=O)COC(=O)Cc1ccc(Br)cc1`, the solubility (kinetic) came out at 13.7 µg/mL (≈ 34.9 µM). The result for `CC12CCC(C(=O)Nc3ccc(Br)cn3)(OC1=O)C2(C)C` (configuration not stated) reads more than 53 µg/mL. To `CC(=O)c1ccc(NC(=S)N2CCN(c3ccccn3)CC2)cc1` belongs 3.1 µg/mL (≈ 9.11 µM). The result for `CC(C)CCN1C(=O)C2(OCCCO2)c2cc(Cl)ccc21` reads 3 µg/mL (≈ 9.68 µM). Compound `CCn1cc(C2CC(=O)NC2=O)c2ccccc21` (configuration not stated) gave a kinetic solubility of more than 36.3 µg/mL.

For `O=C(COC(=O)c1ccccc1O)NCCc1c[nH]c2ccccc12`, the kinetic solubility turned out to be 7.8 µg/mL (≈ 23.1 µM). The result for `O=C(O)Cc1c(C(=O)O)[nH]c2ccc(C(=O)O)cc12` reads more than 39.5 µg/mL. The result for `COc1ccc(-c2nc(-c3cccs3)no2)cc1` reads less than 0.3 µg/mL; that for `CCc1nc2ccccc2c(C(=O)Nc2cc(C)ccc2C)c1C`, 45.6 µg/mL (≈ 143 µM); that for `CCOC(=O)C1=C(O)C(=O)N(C2CCCCC2)C1`, more than 38 µg/mL.

For `Cc1nc(=O)c(-c2ccccc2)c(C)n1-c1ccccc1Cl`, the solubility (kinetic) was more than 46.6 µg/mL. To `O=C(COc1ccccc1)Nc1ccc(F)cc1` belongs more than 36.8 µg/mL; to `CCCCC#Cc1cncc(C(=O)NN)c1`, more than 32.6 µg/mL; to `Cc1cccc(Nc2cc(C)nc3ccccc23)c1.Cl`, more than 42.7 µg/mL. `Cc1ccc(Cl)cc1N1C(=O)CC(Sc2ncccn2)C1=O` (configuration not stated): the solubility (kinetic) is more than 50.1 µg/mL. In turn, `O=C1/C(=C/c2cccc(O)c2)SC(=S)N1CC1CCCO1` (configuration not stated) displayed a kinetic solubility of less than 0.7 µg/mL. To `COc1ccc(NC(=O)CC2(CC(=O)O)CCCC2)cc1` belongs 43.6 µg/mL (≈ 150 µM). Compound `CCOC(=O)C1CCN(S(=O)(=O)c2ccccc2)CC1` registered a solubility (kinetic) of more than 44.6 µg/mL. To `Cc1cc(N2CCCC2)ccc1C=C(C#N)C#N` belongs 0.5 µg/mL (≈ 2.11 µM); to `COc1ccccc1NC(=S)NC(NC(C)=O)C(Cl)(Cl)Cl` (configuration not stated), 19 µg/mL (≈ 51.3 µM). To `O=C(CCl)N(C1CCCC1)C1CCS(=O)(=O)C1` (configuration not stated) belongs more than 42 µg/mL; to `O=c1[nH]cnc2c1c(-c1ccccc1)cn2-c1ccccc1`, less than 0.2 µg/mL; to `CC1CCCC(C)N1C(=O)CSc1nc2ccccc2c(=O)[nH]1` (configuration not stated), 27.6 µg/mL (≈ 83.3 µM).

Take `CCCOc1ccc(C(=O)Nc2ccc3c(c2)OCCO3)cc1`: the kinetic solubility was 1 µg/mL (≈ 3.19 µM). To `CCCc1cc(=O)[nH]c(SCC(=O)Nc2cccc3ccccc23)n1` belongs 3.4 µg/mL (≈ 9.62 µM); to `O=C(c1ccc(Cl)c(Cl)c1)N1CCN(c2ccccn2)CC1`, 40.4 µg/mL (≈ 120 µM). `O=C(c1ccccc1)c1ccccc1NC(=O)C1CCCN1Cc1ccccc1` (configuration not stated) yielded a solubility (kinetic) of 2.6 µg/mL (≈ 6.76 µM). To `Cc1onc(-c2ccccc2)c1C(=O)N(Cc1ccccc1)C(C)C` belongs more than 50.2 µg/mL. To `CCCc1cc(C(=O)Nc2ccc(F)c(Cl)c2)no1` belongs 1.5 µg/mL (≈ 5.31 µM); to `NC(=O)c1cccc2ccccc12`, more than 25.7 µg/mL; to `CC(C)(C)C(=O)Nc1cc2c3c(c1)CCC(=O)N3CCC2`, 40 µg/mL (≈ 140 µM). `Cc1ccc2cccc(N)c2n1` gave a kinetic solubility of 19 µg/mL (≈ 120 µM). Compared with the last compound, the solubility kinetic is about 2.1-fold lower. To `Cc1cc(N2CCN(c3ncccn3)CC2)nc2c(C)cccc12` belongs 0.2 µg/mL (≈ 0.626 µM). `CCc1cccc2c(C(=O)C(NC(C)CC)c3ccccc3)c[nH]c12` (configuration not stated) displayed a solubility (kinetic) of 42.8 µg/mL (≈ 128 µM). For `O=C(CCC(=O)c1ccc(Cl)s1)Nc1ncccc1O`, the kinetic solubility was more than 46.6 µg/mL. The result for `COc1ccc(NC(=O)C2CCOC2=O)cc1` (configuration not stated) reads more than 35.3 µg/mL; that for `COc1ccc(-c2csc(Nc3ncccn3)n2)cc1C`, less than 0.1 µg/mL. To `COc1cc(Cl)c(C)cc1NC(=O)Cc1cccs1` belongs 1 µg/mL (≈ 3.38 µM); to `Cn1c(C(=O)N[C@@H](C(=O)O)c2ccccc2)cc2cc(F)ccc21`, 45.4 µg/mL (≈ 139 µM). To `CCN(CC)c1ccc(C(=O)OCc2c(C)noc2C)cc1` belongs 2.8 µg/mL (≈ 9.26 µM).

Regarding `COc1ccc(OC)c(S(=O)(=O)NC2CCCCNC2=O)c1` (configuration not stated), the solubility (kinetic) was more than 49.3 µg/mL.
